# Data reported in ChEMBL document CHEMBL5390201, “The Natural Alkaloid (-)-N-Hydroxyapiosporamide Suppresses Colorectal Tumor Progression as an NF-κB Pathway Inhibitor by Targeting the TAK1-TRAF6 Complex” (J Nat Prod, 2023).
# pIC50: −log10 of the molar value. Active and inactive are the calls of the source. The rule behind the calls is not given here.
# Key:
# [1] = tested on: Mus musculus; experiment: (§1) Anti-inflammatory activity in AOM/DSS-induced BALB/c mouse model inflammatory bowel disease assessed as reduction in tumor load at 5 to 10 mg/kg, ip pretreated with AOM for 7 days further replaced with DSS for 7 days and repeated for 2 times followed by every 2 days compound treatment for […] starting from day 50 and measured once a week; type: functional, organism-based; settings: dose 5-10 mg/kg, time 21.0 day
# [2] = target: T1, Nuclear factor NF-kappa-B complex (Homo sapiens) (UniProt Q00653+P19838+Q04206); experiment: Inhibition of TNF-alpha induced NFkappaB activation in human HCT-116 cells assessed as downregulation of A20 gene expression pretreated for 24 hrs followed by TNFalpha stimulation and measured after 2 hrs by quantitative RT-PCR analysis; type: cell-based; settings: dose 1-10 µM, time 26.0 hrs
# T1 sequence (P19838 whole entry, looked up): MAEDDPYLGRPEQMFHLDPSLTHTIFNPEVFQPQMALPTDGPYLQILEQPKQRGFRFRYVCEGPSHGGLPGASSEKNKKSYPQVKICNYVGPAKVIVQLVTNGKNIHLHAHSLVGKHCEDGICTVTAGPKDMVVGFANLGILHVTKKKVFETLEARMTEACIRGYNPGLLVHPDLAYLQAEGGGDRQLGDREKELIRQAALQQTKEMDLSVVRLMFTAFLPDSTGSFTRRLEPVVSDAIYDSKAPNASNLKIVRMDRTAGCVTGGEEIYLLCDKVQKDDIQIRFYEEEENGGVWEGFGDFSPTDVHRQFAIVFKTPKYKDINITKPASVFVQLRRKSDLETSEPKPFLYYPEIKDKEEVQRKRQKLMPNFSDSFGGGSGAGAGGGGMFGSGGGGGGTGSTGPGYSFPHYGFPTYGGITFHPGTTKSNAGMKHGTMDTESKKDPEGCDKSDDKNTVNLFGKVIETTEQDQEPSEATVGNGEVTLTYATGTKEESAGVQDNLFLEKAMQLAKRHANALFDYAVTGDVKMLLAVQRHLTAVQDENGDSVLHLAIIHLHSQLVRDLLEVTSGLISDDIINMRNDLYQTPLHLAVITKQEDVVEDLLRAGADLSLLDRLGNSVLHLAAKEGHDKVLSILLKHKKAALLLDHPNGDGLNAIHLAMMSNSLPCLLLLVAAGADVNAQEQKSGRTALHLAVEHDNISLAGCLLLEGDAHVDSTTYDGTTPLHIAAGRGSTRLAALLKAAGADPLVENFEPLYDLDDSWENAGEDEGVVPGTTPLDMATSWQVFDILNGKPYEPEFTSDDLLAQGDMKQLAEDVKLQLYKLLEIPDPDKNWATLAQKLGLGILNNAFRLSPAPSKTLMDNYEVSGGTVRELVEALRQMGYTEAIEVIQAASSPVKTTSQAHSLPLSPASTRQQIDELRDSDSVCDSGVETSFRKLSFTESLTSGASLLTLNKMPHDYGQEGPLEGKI
# T1 sequence (Q00653 whole entry, looked up): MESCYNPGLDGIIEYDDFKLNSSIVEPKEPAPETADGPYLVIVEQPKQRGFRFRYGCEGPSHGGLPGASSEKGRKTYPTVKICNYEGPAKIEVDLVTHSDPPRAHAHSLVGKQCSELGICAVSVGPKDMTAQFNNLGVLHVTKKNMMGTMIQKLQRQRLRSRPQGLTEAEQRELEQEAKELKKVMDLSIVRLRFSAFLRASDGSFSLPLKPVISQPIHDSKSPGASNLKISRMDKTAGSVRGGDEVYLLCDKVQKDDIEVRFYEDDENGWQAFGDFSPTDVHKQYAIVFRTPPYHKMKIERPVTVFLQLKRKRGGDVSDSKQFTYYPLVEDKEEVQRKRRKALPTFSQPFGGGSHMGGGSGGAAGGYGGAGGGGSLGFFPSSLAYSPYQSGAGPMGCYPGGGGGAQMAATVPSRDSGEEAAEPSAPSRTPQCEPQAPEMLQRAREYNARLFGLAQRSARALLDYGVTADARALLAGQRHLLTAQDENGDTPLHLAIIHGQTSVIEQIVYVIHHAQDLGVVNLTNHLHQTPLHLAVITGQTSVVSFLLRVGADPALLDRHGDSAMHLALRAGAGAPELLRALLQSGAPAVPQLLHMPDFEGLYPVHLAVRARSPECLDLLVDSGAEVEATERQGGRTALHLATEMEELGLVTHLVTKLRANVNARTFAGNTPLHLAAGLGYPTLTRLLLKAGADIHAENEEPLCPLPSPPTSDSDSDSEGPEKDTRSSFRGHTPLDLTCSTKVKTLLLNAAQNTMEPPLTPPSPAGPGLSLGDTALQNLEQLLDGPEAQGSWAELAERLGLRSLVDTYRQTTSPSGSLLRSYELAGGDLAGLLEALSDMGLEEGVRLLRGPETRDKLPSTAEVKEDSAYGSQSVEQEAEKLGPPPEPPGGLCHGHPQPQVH
# T1 sequence (Q04206 whole entry, looked up): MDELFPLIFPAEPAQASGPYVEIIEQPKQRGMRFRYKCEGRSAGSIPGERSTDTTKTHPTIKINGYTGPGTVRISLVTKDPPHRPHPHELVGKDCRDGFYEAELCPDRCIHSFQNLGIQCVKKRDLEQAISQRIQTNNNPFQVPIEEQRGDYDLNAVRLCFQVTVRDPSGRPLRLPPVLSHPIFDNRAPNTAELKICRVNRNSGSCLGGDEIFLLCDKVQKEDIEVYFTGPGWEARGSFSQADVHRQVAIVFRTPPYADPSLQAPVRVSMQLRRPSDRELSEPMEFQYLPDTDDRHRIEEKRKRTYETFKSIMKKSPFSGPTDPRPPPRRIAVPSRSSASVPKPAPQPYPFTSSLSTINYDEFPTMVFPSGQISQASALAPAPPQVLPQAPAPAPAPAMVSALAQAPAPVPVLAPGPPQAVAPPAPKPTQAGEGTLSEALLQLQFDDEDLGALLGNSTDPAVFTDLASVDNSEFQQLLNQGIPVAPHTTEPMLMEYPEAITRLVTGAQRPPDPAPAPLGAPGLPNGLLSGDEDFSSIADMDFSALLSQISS
# [3] = Toxicity in athymic nude BALB/c mouse xenografted with human HCT-116 cells assessed as pathological changes in lungs at 5 to 15 mg/kg, ip administered every other day and measured after 14 days by hematoxylin and eosin staining-based microscopic analysis; type: organism-based; settings: in vivo, 336 h, dose 5-15 mg/kg, time 14 day
# [4] = tested on: HCT-116; experiment: Induction of apoptosis in human HCT-116 cells assessed as late apoptotic cells at 1 uM incubated for 24 hrs by Annexin V-FITC/PI staining based flow cytometric analysis (reference value: 2.9 %); type: functional
# [5] = target: T1, Nuclear factor NF-kappa-B complex (Homo sapiens); experiment: Inhibition of NFkappaB activation in HEK293T cells transfected with Flag-tagged MyD88 and kappaB luciferase/pTK-renilla reporters at 2 uM incubated for 6 hrs by Dual Luciferase Reporter Assay; type: cell-based; settings: HEK-293T
# [6] = tested on: HCT-116; experiment: Induction of apoptosis in human HCT-116 cells assessed as viable cells at 0.25 uM incubated for 24 hrs by Annexin V-FITC/PI staining based flow cytometric analysis (reference value: 88.8%); type: functional; settings: read-out: Activity
# [7] = tested on: HCT-116; experiment: Induction of cell cycle arrest in human HCT-116 cells assessed as accumulation of cells at S phase at 5 uM by RNase/PI staining based flow cytometry analysis (reference value: 43.77 %); type: functional
# [8] = tested on: Mus musculus; experiment: In vivo inhibition of NFkappaB activation in athymic BALB/c mouse xenografted with human HCT-116 cells assessed as reduction in MCP-1 gene expression in tumor at 15 mg/kg, ip administered every other day and measured after 14 days by qRT-PCR analysis; type: functional, organism-based; settings: time 14.0 day
# [9] = tested on: HT-29; experiment: Induction of cell cycle arrest in human HT-29 cells assessed as decrease in Cdc2 protein expression upto 10 uM incubated for 24 hrs by Western blot analysis; type: functional, cell-based
# [10] = tested on: HCT-116; experiment: Induction of apoptosis in human HCT-116 cells assessed as viable cells at 1 uM incubated for 24 hrs by Annexin V-FITC/PI staining based flow cytometric analysis (reference value: 88.8%); type: functional; settings: read-out: Activity
# [11] = tested on: HT-29; experiment: Induction of autophagic flux in human HT-29 cells assessed as increase in LC3 protein expression preincubated with 3-methyladenine for 1 hr followed by compound addition and measured after 24 hrs by Western blot analysis; type: functional, cell-based
# [12] = tested on: HCT-116; experiment: Induction of apoptosis in human HCT-116 cells assessed as necrotic cells at 5 uM incubated for 24 hrs by Annexin V-FITC/PI staining based flow cytometric analysis (reference value: 0.69 %); type: functional
# [13] = tested on: HT-29; experiment: Cytotoxicity against human HT-29 cells assessed as inhibition of cell growth incubated for 24 hrs by SRB assay; type: functional, cell-based; settings: HT-29, 24 h
# [14] = tested on: HT-29; experiment: Induction of cell death in human HT-29 cells at 0.5 to 10 uM pretreated with Z-VAD-FMK for 1 hr followed by compound addition and measured after 24 hrs by SRB assay; type: functional, cell-based; settings: dose 0.5-10 µM
# [15] = tested on: HT-29; experiment: Induction of apoptosis in human HT-29 cells assessed as viable cells at 5 uM incubated for 24 hrs by Annexin V-FITC/PI staining based flow cytometric analysis (reference value: 93 %); type: functional; settings: read-out: Activity
# [16] = tested on: HT-29; experiment: Antitumor activity against human HT-29 cells xenografted in athymic nude BALB/c mouse assessed as induction of autophagy by measuring reduction in p62 expression in tumor at 15 mg/kg, ip administered every other day and measured after 14 days by immunohistochemistry analysis; type: functional, organism-based; settings: time 14.0 day
# [17] = tested on: HCT-116; experiment: Induction of apoptosis in human HCT-116 cells assessed as early apoptotic cells at 5 uM incubated for 24 hrs by Annexin V-FITC/PI staining based flow cytometric analysis (reference value: 7.22 %); type: functional
# [18] = tested on: HCT-116; experiment: Induction of apoptosis in human HCT-116 cells assessed as early apoptotic cells at 5 uM preincubated with Z-VAD-FMK for 1 hr followed by compound addition and measured after 24 hrs by Annexin V-FITC/PI staining based flow cytometric analysis (reference value: 4.75 %); type: functional
# [19] = tested on: HCT-116; experiment: Induction of apoptosis in human HCT-116 cells assessed as viable cells at 5 uM incubated for 24 hrs by Annexin V-FITC/PI staining based flow cytometric analysis (reference value: 88.8%); type: functional; settings: read-out: Activity
# [20] = Cmax in Sprague-Dawley rat at 10 mg/kg, ip measured for 240 mins by HPLC-MS/MS analysis; type: ADME, organism-based; parameters: time 240 min, dose 10 mg/kg, route ip; settings: in vivo
# [21] = tested on: HCT-116; experiment: Cytotoxicity against human HCT-116 cells assessed as inhibition of cell growth by SRB assay; type: functional, cell-based; settings: time 24-48 hrs, TDE = time-dependent effect
# [22] = tested on: HT-29; experiment: Induction of apoptosis in human HT-29 cells assessed as late apoptotic cells at 1 uM incubated for 24 hrs by Annexin V-FITC/PI staining based flow cytometric analysis (reference value: 1.56 %); type: functional
# [23] = tested on: HEK-293T; experiment: Inhibition of Flag-tagged TAK1/HA-tagged TRAF6 (unknown origin) protein-protein interaction transfected in HEK293T cells at 2 uM incubated for 6 hrs by co-immunoprecipitation method; type: cell-based; settings: Homo sapiens
# [24] = tested on: HT-29; experiment: Induction of apoptosis in human HT-29 cells assessed as necrotic cells at 5 uM preincubated with Z-VAD-FMK for 1 hr followed by compound addition and measured after 24 hrs by Annexin V-FITC/PI staining based flow cytometric analysis (reference value: 0.4 %); type: functional
# [25] = target: T1, Nuclear factor NF-kappa-B complex (Homo sapiens); experiment: Inhibition of TNF-alpha induced NFkappaB activation in human HCT-116 cells assessed as inhibition of IkappaBalpha phosphorylation at 1 to 10 uM pretreated for 24 hrs followed by TNFalpha stimulation for 10 mins by Western blot analysis; type: cell-based; settings: dose 1-10 µM, time 1450.0 min
# [26] = tested on: HT-29; experiment: Antitumor activity against human HT-29 cells xenografted in athymic nude BALB/c mouse assessed as induction of autophagy by measuring increase in LC3B expression in tumor at 15 mg/kg, ip administered every other day and measured after 14 days by immunohistochemistry analysis; type: functional, organism-based; settings: time 14.0 day
# [27] = tested on: HCT-116; experiment: Induction of apoptosis in human HCT-116 cells assessed as necrotic cells at 5 uM incubated for 24 hrs by Annexin V-FITC/PI staining based flow cytometric analysis (reference value: 1.1 %); type: functional
# [28] = tested on: HCT-116; experiment: Antitumor activity against human HCT-116 cells xenografted in athymic nude BALB/c mouse assessed as reduction in tumor weight at 5 to 15 mg/kg, ip administered every other day and measured every other day for 16 days; type: functional, organism-based; settings: dose 5-15 mg/kg, time 16.0 day
# [29] = tested on: Mus musculus; experiment: as §1, with “hyperplasia” for “tumor load”, “at” for “at 5 to”, “50 by H” for “50”, “E staining based analysis” for “measured once a week”; type: functional, organism-based; settings: time 21.0 day
# [30] = tested on: HT-29; experiment: Induction of apoptosis in human HT-29 cells assessed as late apoptotic cells at 5 uM incubated for 24 hrs by Annexin V-FITC/PI staining based flow cytometric analysis (reference value: 1.56 %); type: functional
compound,measurement,setting,value
C[C@@H]1CC[C@H]2[C@H](C(=O)c3c(O)c([C@@]4(O)CC[C@@H](O)[C@H]5O[C@H]54)cn(O)c3=O)[C@H](C)C=C[C@@H]2C1,Activity,[1],Active
same,inhibition,[2],Dose-Dependent Effect
same,Activity,[3],Non-Toxic
same,Activity,[4],47%
same,inhibition,[5],Active
same,viability at 0.25 µM,[6],59.9%
same,Activity,[7],40.03%
same,inhibition,[8],Active
same,Activity,[9],Active
same,viability at 1 µM,[10],32%
same,Activity,[11],Active
same,Activity,[12],0.52%
same,pIC50,[13],6.21
same,inhibition,[14],inactive
same,viability at 5 µM,[15],39.3%
same,Activity,[16],Active
same,Activity,[17],16.2%
same,Activity,[18],16.8%
same,viability at 5 µM,[19],16.5%
same,Cmax,[20],4590 ng/mL
same,Activity,[21],Tde
same,Activity,[22],7.39%
same,inhibition,[23],Active
same,Activity,[24],0.15%
same,inhibition,[25],Active
same,Activity,[26],Active
same,Activity,[27],2.9%
same,Activity,[28],Active
same,Activity,[29],Active
same,Activity,[30],4.04%
